Entries after “also recorded” stand apart in the source; their conditions may differ.
How the values were obtained:
[1] = tested on: CD34+CD31−CD45− cells (MSC) from WAT; assay: Synchronous in vivo phage display biopanning, clones recovered from WAT MSC (ASC); parameters: species or system mouse; settings: percent of sequenced phage clones carrying the insert in WAT after 4 rounds of synchronous in vivo biopanning on CD34+CD31−CD45− cells
Excerpt: (§1) Phage Library Screening: Random peptide libraries based on the M13-derived bacteriophage vector fUSE5 displaying inserts CX7C, CX8C, and CX9C on the pIII protein were admixed (1:1:1) to the combined 10^10 TU of mixed library for the screen performed based on the synchronous biopanning in vivo upon tail vein injection (see for example, US20050074747 and Arap, et al., Nat. Med. 8:121-127, 2002; Kolonin, et al., FASEB J. 20: 979-981, 2006).
(§2) For competitive homing experiment, 5×10^9 TU for each of the 11 chosen phage clones were admixed and the combined 5.5×10^10 TU was injected. For validation of individual clones, 1×10^10 TU for each phage clones was injected. After 1 hr of circulation and heart perfusion with 10 ml of phosphate buffer saline (PBS), WAT, tibia/femurs, bone-associated skeletal muscle, and lungs were collected. Bone marrow was isolated by flushing tibia/femurs. Hematopoietic and endothelial cells were depleted from cell suspensions of each organ by Dynabeads (Invitrogen) coated with anti-TER119, anti-CD31, and anti-CD45 antibodies (BD Biosciences), after which the remaining cells were processed by FACS to purify CD34+CD31−CD45− cells. Bound phage were recovered by infecting K91 E. coli, quantified by phage transforming unit (TU) counting, and processed for sequencing of the peptide-coding DNA as described in Arap, et al. 2002, ibid and Kolonin, et al., 2006, ibid. For identification of conserved peptide motifs, ClustalW2 software was used.
(§3) Methods for isolation of MSC by fluorescence-activated cell sorting (FACS) from organ cell suspensions based on the C34+CD31−CD45− immunophenotype (FIG. 8B) were combined with phage display and optimized for ASC. By adapting the previously described “synchronous in vivo biopanning” method of (Kolonin et al., 2006, ibid), a mixture of cyclic CX7C, CX8C, and CX9C (C: disulfide-bonded cysteines; X: any amino acid) random peptide libraries was screened (FIG. 1A). This approach made it possible to select MSC probes from the pool of over 10^11 combinatorial peptides. Throughout the screen, progressive enrichment in the number of phage particles recovered on MSC from WAT, as well as from the chosen control organs: lung, bone marrow, and skeletal muscle (FIG. 1B) was observed.
(§4) After 4 rounds of synchronous in vivo biopanning, eight CX7C and CX8C sequences repeatedly recovered from ASC with frequency above 1% were identified, which were termed WAT1 through WAT8 (see Table 1 below). In parallel, a matched number of peptide inserts homing to lung stromal cells (LSC) were sequenced as a control. None of the WAT-homing peptides were enriched in the lung. Four sequences repeatedly recovered in the lung with frequency above 1%, were termed LU1 through LU4 (see Table 1 below). […] Because the focus of this study is WAT-specific MSC, this clone was excluded from further analysis. Other selected peptides were subjected to an in vivo competition assay in order to identify those with the highest specificity of binding. Equal amounts of phage for the 11 clones displaying peptides WAT1 through WAT7 (SEQ ID NOS: 1-14) and LU1 through LU4 (SEQ ID NOS: 17-24) were admixed and injected into a mouse. Homing specificity of each clone was assessed by quantifying frequency of phage coding for each peptide selected on C34+CD31−CD45− cells isolated from either WAT or lung.
(§5) Shown in Table 1 above are the percent (%) of the sequenced phage clones that carried the indicated WAT or LU insert present within WAT (% in WAT) or lung (% in LUNG) following 4 rounds of synchronous in vivo biopanning on CD34+CD31−CD45− cells.

[2] = tested on: CD34+CD31−CD45− cells (MSC) from lung; assay: Synchronous in vivo phage display biopanning, clones recovered from lung MSC (LSC); parameters: species or system mouse; settings: percent of sequenced phage clones carrying the insert in lung after 4 rounds of synchronous in vivo biopanning on CD34+CD31−CD45− cells
Excerpt: as §1, §2, §3, §4, §5

[3] = tested on: C34+CD31−CD45− cells isolated from WAT; assay: In vivo competition (re-homing) assay of 11 admixed phage clones, WAT; parameters: species or system mouse; settings: equal amounts of 11 phage clones mixed and injected; percent of sequenced clones on C34+CD31−CD45− cells from WAT
Procedure: as §2, §4

[4] = tested on: C34+CD31−CD45− cells isolated from lung; assay: In vivo competition (re-homing) assay of 11 admixed phage clones, lung; parameters: species or system mouse; settings: equal amounts of 11 phage clones mixed and injected; percent of sequenced clones on C34+CD31−CD45− cells from lung
Procedure: as §2, §4

[5] = tested on: WAT CD34+CD31−CD45− cells (ASC) versus lung CD34+CD31−CD45− cells (LSC); assay: Homing of individual phage-peptide clones injected separately, TU on WAT vs lung MSC; type: in vivo, mouse; settings: individual phage clones injected into mice, FIG. 1C
Excerpt: FIGS. 1A-C depict the screen for MSC-homing peptides. (A) depicts the schematic for a screen for peptides homing to organ-specific MSC populations. […] In every selection round, erythroid (TER119+), endothelial (CD31+) and hematopoietic (CD45+) cells were immunodepleted and then FACS was used to collect CD34+CD31−CD45− cells (MSC) from WAT, lung, bone marrow, and skeletal muscle. (B) Phage-peptides bound to WAT MSC (ASC), in parallel with phage-peptides bound to MSC of control organs, were quantified, amplified, pooled, and used for the next round of biopanning. Increased recovery of phage transforming units (TU) in successive rounds reflects the enrichment of phage-peptides homing to MSC of individual target organs. (C) Relative specificity of ASC homing assessed for individual phage-peptide clones separately injected into mice as a ratio of TU recovered on WAT to CD34+CD31−CD45− to TU recovered on lung CD34+CD31−CD45− cells. Fd-Tet: control insertless phage. Values shown are mean±SD for triplicate measurements.
For competitive homing experiment, 5×10^9 TU for each of the 11 chosen phage clones were admixed and the combined 5.5×10^10 TU was injected. […] Bound phage were recovered by infecting K91 E. coli, quantified by phage transforming unit (TU) counting, and processed for sequencing of the peptide-coding DNA as described in Arap, et al. 2002, ibid and Kolonin, et al., 2006, ibid. […]

[6] = tested on: stroma/vasculature of lung; assay: Biodistribution of peptide-displaying phage by anti-phage immunofluorescence, lung; type: in vivo, mouse; settings: intravenous injection, immunofluorescence of tissue sections
Excerpt: (§6) FIGS. 2A-J depict the validation of cyclic WAT7 Peptide (SEQ ID NOS: 13) Homing to ASC. Panels A-D are confocal anti-phage (red) and anti-CD31 (bright green) immunofluorescence in paraffin sections of formalin-fixed WAT and lung from mice intravenously injected with phage displaying WAT-homing peptide WAT7 (SEQ ID NOS: 13 AND 14) or a lung-homing peptide LU2 (SEQ ID NOS: 19). […] upon digital channel merging indicates localization (arrow) of phage on non-endothelial perivascular cells observed for WAT7 (SEQ ID NOS: 13) in WAT (A) but not in lung (B), and for LU2 (SEQ ID NO: 19) in lung (D) but not in WAT (C). […] Note the association (arrow) of cyclic WAT7 (SEQ ID NOS: 13) specifically with perivascular WAT cells (E) in a pattern overlapping with PDGFRβ expressed on ASC (F-G). Like PDGFRβ, WAT7 is not associated with CD31+ endothelial cells (E) or CD45+ hematopoietic cells (H). WAT7 was not detected in lung (I) despite the abundance of PDGFRβ+LSC (J). Nuclear TOPRO3 staining is blue. Scale bar: 100 μM.
(§7) Mouse Tissue and Cell Analysis by Immunofluorescence: Peptides chemically synthesized, cyclized via their N- and C-terminal cysteines, purified to at least 95% purity (Genemed), and biotinylated were injected (500 μg) via tail vein and allowed to circulate for 1 hr. […] Fluorescence images were acquired with an Olympus IX70 inverted fluorescence microscope/Magnafire software (Olympus). […]

[7] = tested on: perivascular WAT cells (PDGFRβ+ ASC); assay: Biodistribution of biotinylated synthetic cyclic peptide (streptavidin-Cy3), WAT; type: in vivo, mouse; settings: biotinylated cyclic peptide i.v., 1 hr, CD31 / CD45 co-staining
Excerpt: as §6, §7

Molecule	% in WAT [1]	% in LUNG [2]	Re-home to WAT (%) [3]	Re-home to Lung (%) [4]	specificity of homing to ASC compared to lung MSC [5]	phage accumulation in lung [6]	co-localization with endothelial cells or CD45+ hematopoietic cells in WAT [7]
LGVGPGF [LU-3]	0%	5.2%	0%	1.1%	–	–	–
GQWLGNWL [WAT-8]	13.6%	0%	0%	13.6%	modest preference for ASC	–	–
ESGFPTVG [LU-2, control]	0%	14.7%	–	40.2%	–	associated with the stroma/vasculature of lung	–
KHYGGGVA [WAT-1]	9.1%	0%	1.1%	9.1%	–	–	–
NCCCC[C@@H]1NC(=O)[C@H](Cc2c[nH]c3ccccc23)NC(=O)[C@H](CO)NC(=O)[C@@H](N)CSSC[C@@H](C(=O)O)NC(=O)[C@H](CCC(=O)O)NC(=O)CNC(=O)[C@H](Cc2ccccc2)NC(=O)[C@H](Cc2c[nH]c3ccccc23)NC(=O)[C@H](Cc2ccc(O)cc2)NC1=O [WAT-7, SWKYWFGE]	–	–	–	–	–	–	did not co-localize
CWLGEWLGC [mPep]	–	–	–	–	modest preference for ASC; also recorded: did not display any WAT specificity	–	–
GSGGMSPS [WAT-6]	1.9%	0%	0%	1.9%	–	–	–
AVYRSTG [LU-1]	0%	71.6%	–	52.2%	–	–	–
RFLLPQG [WAT-3]	3.9%	0%	0%	3.9%	–	–	–
YEGSEVS [WAT-4]	2.9%	0%	0%	2.9%	–	–	–
LRQGNPT [WAT-5]	1.9%	0%	0%	1.9%	–	–	–
IRGKAGR [LU-4]	0%	5.2%	0%	1.1%	–	–	–

From patent US9539341B2, “Methods and compositions for targeting adipose cells in mammals” (Board of Regents, the University of Texas System, priority 2011, dated 2017)
